Data taken from ChEMBL document CHEMBL1152560, “Substituted 2-arylbenzothiazoles as kinase inhibitors: hit-to-lead optimization” (Bioorg Med Chem, 2009).

Assays:
[1] = molecular target: Insulin-like growth factor 1 receptor (Homo sapiens) (UniProt P08069); test: Residual activity of IGF1R at 0.1 uM by microplate scintillation counting
[2] = molecular target: Ribosomal protein S6 kinase alpha-3 (Homo sapiens) (UniProt P51812); test: Residual activity of RPS6KA3 at 0.1 uM by microplate scintillation counting
[3] = molecular target: 3-phosphoinositide-dependent protein kinase 1 (Homo sapiens) (UniProt O15530); test: Residual activity of PDK1 at 10 uM by microplate scintillation counting
[4] = molecular target: Serine/threonine-protein kinase WNK3 (Homo sapiens) (UniProt Q9BYP7); test: Residual activity of WNK3 at 1 uM by microplate scintillation counting
[5] = molecular target: Cyclin-dependent kinase 2/cyclin E1 (Homo sapiens) (UniProt P24864+P24941); test: Residual activity of CDK2/Cyclin E at 1 uM by microplate scintillation counting; assay type: protein-complex assay
[6] = molecular target: T1, Eukaryotic elongation factor 2 kinase (Homo sapiens) (UniProt O00418); test: Residual activity of EEF2K at 10 uM by microplate scintillation counting
T1 sequence (whole entry): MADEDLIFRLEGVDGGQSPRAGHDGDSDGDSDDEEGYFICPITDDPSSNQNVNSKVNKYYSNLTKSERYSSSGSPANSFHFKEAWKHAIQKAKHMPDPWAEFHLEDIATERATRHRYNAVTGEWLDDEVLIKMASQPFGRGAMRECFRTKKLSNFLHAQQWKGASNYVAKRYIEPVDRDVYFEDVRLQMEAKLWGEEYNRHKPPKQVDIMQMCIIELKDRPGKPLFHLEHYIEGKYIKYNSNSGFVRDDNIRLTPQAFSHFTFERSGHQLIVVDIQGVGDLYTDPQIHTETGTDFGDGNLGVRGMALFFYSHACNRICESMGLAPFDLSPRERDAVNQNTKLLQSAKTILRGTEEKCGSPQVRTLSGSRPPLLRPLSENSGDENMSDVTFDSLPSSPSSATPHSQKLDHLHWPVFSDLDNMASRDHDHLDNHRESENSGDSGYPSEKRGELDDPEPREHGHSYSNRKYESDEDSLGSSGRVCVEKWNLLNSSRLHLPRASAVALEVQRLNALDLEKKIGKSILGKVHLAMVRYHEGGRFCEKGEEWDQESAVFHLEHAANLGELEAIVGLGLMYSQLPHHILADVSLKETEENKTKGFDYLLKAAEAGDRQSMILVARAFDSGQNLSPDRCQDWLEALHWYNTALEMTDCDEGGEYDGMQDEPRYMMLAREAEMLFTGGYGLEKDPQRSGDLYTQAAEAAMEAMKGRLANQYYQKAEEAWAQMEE

[7] = molecular target: Calcium/calmodulin-dependent protein kinase type II subunit alpha (Homo sapiens) (UniProt Q9UQM7); test: Residual activity of CAMK2A at 10 uM by microplate scintillation counting
[8] = molecular target: Myosin light chain kinase 2, skeletal/cardiac muscle (Homo sapiens) (UniProt Q9H1R3); test: Residual activity of MYLK2 at 0.1 uM by microplate scintillation counting
Myosin light chain kinase 2, skeletal/cardiac muscle (Homo sapiens), sequence (Q9H1R3 whole entry): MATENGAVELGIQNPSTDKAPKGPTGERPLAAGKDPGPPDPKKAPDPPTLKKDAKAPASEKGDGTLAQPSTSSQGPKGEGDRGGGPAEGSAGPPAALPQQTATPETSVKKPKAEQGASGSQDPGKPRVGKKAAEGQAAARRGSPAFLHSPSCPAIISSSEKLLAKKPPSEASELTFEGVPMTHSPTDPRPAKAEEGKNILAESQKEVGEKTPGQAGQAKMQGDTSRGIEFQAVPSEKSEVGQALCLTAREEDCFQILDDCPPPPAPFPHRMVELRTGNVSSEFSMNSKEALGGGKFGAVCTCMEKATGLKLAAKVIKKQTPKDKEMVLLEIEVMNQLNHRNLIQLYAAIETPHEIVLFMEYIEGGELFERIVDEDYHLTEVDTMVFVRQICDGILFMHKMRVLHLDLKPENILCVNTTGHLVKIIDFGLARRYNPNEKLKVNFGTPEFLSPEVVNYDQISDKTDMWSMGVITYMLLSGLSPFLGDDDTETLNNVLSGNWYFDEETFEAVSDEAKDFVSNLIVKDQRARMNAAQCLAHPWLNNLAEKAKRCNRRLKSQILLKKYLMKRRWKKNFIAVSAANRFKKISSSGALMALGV

[9] = molecular target: T2, Protein kinase C epsilon type (Homo sapiens) (UniProt Q02156); test: Residual activity of PKCepsilon at 0.1 uM by microplate scintillation counting
T2 sequence (whole entry): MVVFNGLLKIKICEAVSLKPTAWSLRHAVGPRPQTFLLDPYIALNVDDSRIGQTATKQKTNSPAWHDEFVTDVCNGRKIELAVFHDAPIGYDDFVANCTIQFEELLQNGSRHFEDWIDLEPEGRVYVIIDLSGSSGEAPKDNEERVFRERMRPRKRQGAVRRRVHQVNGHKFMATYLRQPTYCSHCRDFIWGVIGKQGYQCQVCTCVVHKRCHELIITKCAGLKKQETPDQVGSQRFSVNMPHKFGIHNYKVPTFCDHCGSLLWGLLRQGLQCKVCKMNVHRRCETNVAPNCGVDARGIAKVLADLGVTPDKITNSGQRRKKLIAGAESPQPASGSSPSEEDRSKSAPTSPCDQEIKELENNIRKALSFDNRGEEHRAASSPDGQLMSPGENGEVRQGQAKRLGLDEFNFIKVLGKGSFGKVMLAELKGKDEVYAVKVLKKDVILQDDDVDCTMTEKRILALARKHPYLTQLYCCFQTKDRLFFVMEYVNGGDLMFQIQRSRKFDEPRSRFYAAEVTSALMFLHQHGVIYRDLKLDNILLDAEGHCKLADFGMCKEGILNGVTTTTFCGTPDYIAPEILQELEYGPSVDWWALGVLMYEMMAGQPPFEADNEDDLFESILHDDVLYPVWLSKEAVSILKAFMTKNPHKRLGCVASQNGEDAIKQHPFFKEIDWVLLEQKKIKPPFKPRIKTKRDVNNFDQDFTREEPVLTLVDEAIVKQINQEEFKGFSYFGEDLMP

[10] = molecular target: T3, Megakaryocyte-associated tyrosine-protein kinase (Homo sapiens) (UniProt P42679); test: Residual activity of MATK at 0.1 uM by microplate scintillation counting
T3 sequence (whole entry): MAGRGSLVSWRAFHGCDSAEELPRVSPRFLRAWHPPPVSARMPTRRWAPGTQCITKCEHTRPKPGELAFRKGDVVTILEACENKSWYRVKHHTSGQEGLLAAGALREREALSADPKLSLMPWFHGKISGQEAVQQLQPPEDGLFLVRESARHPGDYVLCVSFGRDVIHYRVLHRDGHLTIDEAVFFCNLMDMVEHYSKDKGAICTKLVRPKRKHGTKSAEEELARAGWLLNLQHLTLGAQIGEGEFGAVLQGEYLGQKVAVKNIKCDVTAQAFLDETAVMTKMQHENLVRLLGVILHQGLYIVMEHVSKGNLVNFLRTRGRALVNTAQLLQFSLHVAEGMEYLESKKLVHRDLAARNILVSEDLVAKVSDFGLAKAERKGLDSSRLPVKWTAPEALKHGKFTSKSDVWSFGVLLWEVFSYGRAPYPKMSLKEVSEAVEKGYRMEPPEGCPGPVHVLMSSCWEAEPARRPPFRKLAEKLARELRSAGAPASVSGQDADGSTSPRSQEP

[11] = molecular target: Mitogen-activated protein kinase kinase kinase 8 (Homo sapiens) (UniProt P41279); test: Residual activity of COT at 10 uM by microplate scintillation counting
Mitogen-activated protein kinase kinase kinase 8 (Homo sapiens), sequence (P41279 whole entry): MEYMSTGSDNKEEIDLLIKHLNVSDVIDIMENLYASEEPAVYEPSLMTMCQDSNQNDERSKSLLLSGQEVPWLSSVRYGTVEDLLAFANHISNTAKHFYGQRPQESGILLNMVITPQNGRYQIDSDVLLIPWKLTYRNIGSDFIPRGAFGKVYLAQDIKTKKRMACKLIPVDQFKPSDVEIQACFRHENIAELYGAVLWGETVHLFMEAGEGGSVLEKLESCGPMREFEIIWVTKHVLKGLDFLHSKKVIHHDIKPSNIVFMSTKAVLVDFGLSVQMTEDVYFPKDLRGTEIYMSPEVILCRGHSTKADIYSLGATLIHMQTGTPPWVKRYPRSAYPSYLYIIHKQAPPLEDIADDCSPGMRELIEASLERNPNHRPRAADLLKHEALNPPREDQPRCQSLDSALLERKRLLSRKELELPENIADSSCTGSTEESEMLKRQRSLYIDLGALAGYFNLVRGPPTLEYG

[12] = molecular target: Vascular endothelial growth factor receptor 1 (Homo sapiens) (UniProt P17948); test: Residual activity of VEGFR1 at 0.1 uM by microplate scintillation counting
Vascular endothelial growth factor receptor 1 (Homo sapiens), sequence (P17948 whole entry): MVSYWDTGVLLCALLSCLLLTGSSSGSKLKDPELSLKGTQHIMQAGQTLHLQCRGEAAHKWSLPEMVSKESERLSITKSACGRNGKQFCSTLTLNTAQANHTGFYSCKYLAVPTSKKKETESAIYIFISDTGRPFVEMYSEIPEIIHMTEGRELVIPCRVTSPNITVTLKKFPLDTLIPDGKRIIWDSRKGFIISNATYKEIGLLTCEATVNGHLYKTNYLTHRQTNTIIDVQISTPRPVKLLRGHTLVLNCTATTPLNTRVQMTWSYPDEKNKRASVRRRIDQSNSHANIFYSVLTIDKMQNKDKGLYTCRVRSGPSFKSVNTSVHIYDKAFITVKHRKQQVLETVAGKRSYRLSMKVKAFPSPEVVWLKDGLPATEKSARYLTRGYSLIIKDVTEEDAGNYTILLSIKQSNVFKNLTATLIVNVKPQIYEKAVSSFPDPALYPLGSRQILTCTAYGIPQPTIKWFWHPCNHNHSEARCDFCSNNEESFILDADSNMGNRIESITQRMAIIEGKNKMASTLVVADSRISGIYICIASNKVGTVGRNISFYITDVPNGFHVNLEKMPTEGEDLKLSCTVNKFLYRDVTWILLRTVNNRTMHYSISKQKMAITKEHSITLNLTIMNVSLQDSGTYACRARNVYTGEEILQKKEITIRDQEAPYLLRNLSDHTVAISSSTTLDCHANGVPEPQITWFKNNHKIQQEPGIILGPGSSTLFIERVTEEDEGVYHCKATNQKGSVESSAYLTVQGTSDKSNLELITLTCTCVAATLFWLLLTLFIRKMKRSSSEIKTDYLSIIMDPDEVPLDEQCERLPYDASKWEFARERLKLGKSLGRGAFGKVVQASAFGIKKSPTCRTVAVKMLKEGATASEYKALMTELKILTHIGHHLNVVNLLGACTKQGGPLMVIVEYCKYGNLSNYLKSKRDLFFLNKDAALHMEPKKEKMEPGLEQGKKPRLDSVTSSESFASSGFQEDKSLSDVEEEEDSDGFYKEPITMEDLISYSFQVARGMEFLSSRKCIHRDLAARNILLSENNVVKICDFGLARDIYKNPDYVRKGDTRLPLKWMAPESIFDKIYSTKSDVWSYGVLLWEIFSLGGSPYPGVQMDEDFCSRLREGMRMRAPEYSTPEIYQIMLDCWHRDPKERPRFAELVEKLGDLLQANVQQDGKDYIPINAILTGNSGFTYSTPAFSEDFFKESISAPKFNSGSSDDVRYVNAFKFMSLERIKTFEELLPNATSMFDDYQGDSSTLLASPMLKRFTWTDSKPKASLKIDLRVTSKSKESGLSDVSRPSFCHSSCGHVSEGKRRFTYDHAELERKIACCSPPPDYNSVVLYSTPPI

[13] = molecular target: Serine/threonine-protein kinase 33 (Homo sapiens) (UniProt Q9BYT3); test: Residual activity of STK33 at 0.1 uM by microplate scintillation counting
Serine/threonine-protein kinase 33 (Homo sapiens), sequence (Q9BYT3 whole entry, looked up): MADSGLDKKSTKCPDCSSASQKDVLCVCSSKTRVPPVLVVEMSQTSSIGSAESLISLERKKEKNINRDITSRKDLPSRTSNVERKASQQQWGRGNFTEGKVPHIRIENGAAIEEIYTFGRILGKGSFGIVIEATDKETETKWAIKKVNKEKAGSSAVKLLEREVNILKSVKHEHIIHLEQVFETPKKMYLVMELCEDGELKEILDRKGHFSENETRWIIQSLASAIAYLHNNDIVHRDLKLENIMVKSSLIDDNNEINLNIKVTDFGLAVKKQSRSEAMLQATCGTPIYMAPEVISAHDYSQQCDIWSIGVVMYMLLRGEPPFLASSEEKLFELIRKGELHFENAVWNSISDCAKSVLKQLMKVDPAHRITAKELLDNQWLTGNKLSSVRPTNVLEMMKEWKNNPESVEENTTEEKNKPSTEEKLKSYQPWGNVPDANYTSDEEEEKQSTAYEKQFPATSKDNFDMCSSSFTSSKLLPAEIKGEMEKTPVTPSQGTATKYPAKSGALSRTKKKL

[14] = molecular target: Macrophage colony-stimulating factor 1 receptor (Homo sapiens) (UniProt P07333); test: Residual activity of CSF1R at 1 uM by microplate scintillation counting
[15] = molecular target: Ribosomal protein S6 kinase alpha-1 (Homo sapiens) (UniProt Q15418); test: Residual activity of RPS6KA1 at 0.1 uM by microplate scintillation counting
Ribosomal protein S6 kinase alpha-1 (Homo sapiens), sequence (Q15418 whole entry): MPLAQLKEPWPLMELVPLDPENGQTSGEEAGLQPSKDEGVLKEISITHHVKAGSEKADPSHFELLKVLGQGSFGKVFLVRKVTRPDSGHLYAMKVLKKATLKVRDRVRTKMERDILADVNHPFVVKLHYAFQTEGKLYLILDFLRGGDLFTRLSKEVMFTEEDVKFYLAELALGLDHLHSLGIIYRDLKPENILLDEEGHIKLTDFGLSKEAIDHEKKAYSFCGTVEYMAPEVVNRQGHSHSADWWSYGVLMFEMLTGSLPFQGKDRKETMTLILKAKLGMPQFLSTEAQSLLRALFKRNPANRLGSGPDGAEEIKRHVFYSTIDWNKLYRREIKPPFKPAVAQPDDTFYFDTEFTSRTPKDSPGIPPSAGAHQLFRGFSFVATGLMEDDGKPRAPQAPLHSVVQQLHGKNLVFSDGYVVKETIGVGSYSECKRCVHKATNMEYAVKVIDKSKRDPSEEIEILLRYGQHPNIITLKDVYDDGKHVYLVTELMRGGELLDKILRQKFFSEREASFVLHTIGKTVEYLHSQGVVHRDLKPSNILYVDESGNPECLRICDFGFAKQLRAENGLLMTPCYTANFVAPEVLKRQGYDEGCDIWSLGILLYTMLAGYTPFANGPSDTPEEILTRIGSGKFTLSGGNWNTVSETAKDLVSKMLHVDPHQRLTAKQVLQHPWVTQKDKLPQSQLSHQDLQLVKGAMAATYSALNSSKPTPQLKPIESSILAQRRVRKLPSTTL

[16] = molecular target: Mitogen-activated protein kinase kinase kinase kinase 4 (Homo sapiens) (UniProt O95819); test: Residual activity of MAP4K4 at 10 uM by microplate scintillation counting
Mitogen-activated protein kinase kinase kinase kinase 4 (Homo sapiens), sequence (O95819 2-1239 limits assumed): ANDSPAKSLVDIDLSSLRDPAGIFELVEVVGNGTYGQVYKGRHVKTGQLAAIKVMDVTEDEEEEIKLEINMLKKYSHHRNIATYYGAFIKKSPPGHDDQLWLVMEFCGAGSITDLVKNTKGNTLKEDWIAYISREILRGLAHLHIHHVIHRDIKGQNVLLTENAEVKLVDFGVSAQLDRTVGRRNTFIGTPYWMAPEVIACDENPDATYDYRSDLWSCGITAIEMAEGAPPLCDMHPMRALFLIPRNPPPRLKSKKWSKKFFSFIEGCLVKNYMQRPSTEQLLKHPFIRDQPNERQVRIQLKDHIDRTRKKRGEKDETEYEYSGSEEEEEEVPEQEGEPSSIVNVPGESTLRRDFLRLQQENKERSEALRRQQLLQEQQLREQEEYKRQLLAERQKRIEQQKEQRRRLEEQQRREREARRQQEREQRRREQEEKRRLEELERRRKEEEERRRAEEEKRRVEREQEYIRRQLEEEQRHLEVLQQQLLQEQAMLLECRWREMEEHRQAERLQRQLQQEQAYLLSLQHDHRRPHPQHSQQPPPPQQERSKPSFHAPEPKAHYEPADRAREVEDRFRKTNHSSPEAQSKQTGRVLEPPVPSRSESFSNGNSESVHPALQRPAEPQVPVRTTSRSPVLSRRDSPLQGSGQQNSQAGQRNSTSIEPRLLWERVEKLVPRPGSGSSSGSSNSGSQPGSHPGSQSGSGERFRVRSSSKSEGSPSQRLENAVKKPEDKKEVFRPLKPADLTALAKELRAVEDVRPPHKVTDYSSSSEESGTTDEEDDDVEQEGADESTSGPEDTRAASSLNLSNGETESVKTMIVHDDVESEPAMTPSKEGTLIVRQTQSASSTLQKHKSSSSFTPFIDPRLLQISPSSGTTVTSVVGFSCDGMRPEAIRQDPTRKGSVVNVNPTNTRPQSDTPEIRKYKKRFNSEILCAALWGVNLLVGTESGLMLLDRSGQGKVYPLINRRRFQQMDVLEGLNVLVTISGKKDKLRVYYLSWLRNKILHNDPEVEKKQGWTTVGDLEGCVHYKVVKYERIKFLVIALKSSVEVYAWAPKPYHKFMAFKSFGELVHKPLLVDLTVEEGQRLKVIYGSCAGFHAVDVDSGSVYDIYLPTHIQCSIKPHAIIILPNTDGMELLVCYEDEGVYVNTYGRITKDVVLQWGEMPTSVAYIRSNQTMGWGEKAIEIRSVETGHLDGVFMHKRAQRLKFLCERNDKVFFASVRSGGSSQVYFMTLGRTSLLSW

Row | Compound | residual activity [1] [%] | residual activity [2] [%] | residual activity [3] [%] | residual activity [4] [%] | residual activity [5] [%] | residual activity [6] [%] | residual activity [7] [%] | residual activity [8] [%] | residual activity [9] [%] | residual activity [10] [%] | residual activity [11] [%] | residual activity [12] [%] | residual activity [13] [%] | residual activity [14] [%] | residual activity [15] [%] | residual activity [16] [%]
1 | COc1cc2c(Oc3ccc(-c4nc5ccccc5s4)cc3F)ncnc2cc1OCCCN1CCN(C)CC1 | 113 | 95 | 61 | 69 | 94 | 120 | 21 | 93 | 108 | 96 | 94 | 95 | 85 | 105 | 86 | 96
2 | COc1cc2c(Oc3ccc(-c4nc5ccccc5s4)cc3)ncnc2cc1OCCCN1CCCC1 | 114 | 94 | 66 | 76 | 94 | 104 | 11 | 33 | 112 | 109 | 96 | 96 | 96 | 112 | 79 | 76
3 | COc1cc2c(Oc3ccc(-c4nc5ccccc5s4)cc3)ncnc2cc1OCCCN1CCN(C)CC1 | 99 | 93 | 67 | 64 | 102 | 91 | 10 | 83 | 106 | 107 | 115 | 93 | 81 | 118 | 81 | 101
